In patent US9278083B2, “Methods for purifying trans-(−)-Δ9-tetrahydrocannabinol and trans-(+)-Δ9-tetrahydrocannabinol” (SVC Pharma LP, priority 2004, dated 2016):

Test: Storage stability of crystalline (±)-Δ^9-THC at 25° C.

CCCCCc1cc(O)c2c(c1)OC(C)(C)[C@@H]1CCC(C)=C[C@@H]21 (racemic) [crystalline (±)-Δ^9-THC, (±)-Δ^9-THC]
Stability on storage (off-white crystals of Example 17, at 25° C. in the presence of air and laboratory lighting): stable | Appearance (colour) on storage (white crystalline solid of Example 15, after at least three days at 25° C.): remained white
